{"source": "patent US20140303251A1", "about": "“Methods Of Treating Acute Kidney Injury With Retinoic Acid” (Beth Israel Deaconess Medical Center, Inc., priority 2011, published 2014)", "key": {"[1]": {"tested_on": "primary cultures of renal proximal tubule epithelial cells (RPTECs)", "test": "in vitro IRI model: primary RPTEC cultures, mineral oil overlay induced hypoxia followed by reperfusion, qPCR", "assay_type": "cell-based, mice", "conditions": "for CCL20 induction: Nur77 knockout RPTECs; for Nur77 levels (induction after ischemia-reperfusion): RPTECs, hypoxia by mineral oil overlay then reperfusion; for Nur77 levels (induction after ischemia-reperfusion) / Induction of Nr4a family members (Nor-1, Nurr1): vs vehicle; for Induction of Nr4a family members (Nor-1, Nurr1): both wild type and Nur77 knockout RPTEC cultures", "description": "(§1) Kidney tissues were snap frozen and stored at −80 deg C. until processing. The tissues were homogenized and total RNA was prepared using RNeasy kit (Qiagen). DNA contamination was eliminated by DNase digestion. The reverse transcribed cDNA was subjected to qPCR using a Sybr green based detection system (SA Bioscience). Relative levels of mRNA was normalized to GAPDH levels and quantified based on 2e-deltaCT method.\nKidneys from 4-5 weeks old mice were harvested after perfusion with sterile PBS. Cortex was separated and minced into ˜1 mm3 pieces and digested using collagenase and soybean trypsin inhibitor for 30 min and 37 degC. The digested mix was spun down and filtered through 200 uM filter followed by a 70 uM filter. The tubules that are retained on the top of the 70 uM filter were collected and cultured in Renal life cell growth medium (Lifeline cell technology) on collagen coated plates. After 7 days of culturing, the cells were used for experiments. The purity of the culture was ascertained by staining for cytokeratin (Anti-cytokeratin antibody: Sigma). To induce ischemia reperfusion injury, confluent monolayer of RPTECs was overlayed with mineral oil for 1 h, followed by reperfusion with complete medium.\nRetinoic acid can antagonize Nur77 function by inhibiting its transcriptional induction, DNA binding and nuclear export^17,18. RXRs heterodimerize with Nur77 in response to cell death stimuli, promoting nuclear export and causing Bcl-2 dependent cytochrome c release and apoptosis. Ligand bound RXR inhibits Nur77 function either by retaining it in the nucleus or by inhibiting its transcription by an AP-1 dependent mechanism^18. Since Nur77 deficient mice were protected from renal IRI, whether pharmacologic antagonism of Nur77 by retinoic acid could be used to protect kidneys from acute injury was assessed. To determine whether retinoids could regulate Nur77-dependent signaling in renal epithelia, primary cultures of renal proximal tubule epithelial cells (RPTECs) were generated from either wild type or Nur77 knockout mice. RPTECs were treated with either vehicle or 9-cis-retinoic acid, and subjected to mineral oil overlay induced hypoxia, followed by reperfusion."}, "renal IRI": {"tested_on": "renal IRI", "test": "renal ischemia reperfusion injury (IRI) in mice, 9-cis retinoic acid given 4 h prior", "assay_type": "in vivo", "conditions": "for BUN (serum blood urea nitrogen) / serum creatinine / tubular / renal injury score / apoptotic cells in kidney (TUNEL) / neutrophil infiltration in kidney / CXCL2 gene expression level in kidney: 10 mg/kg 4 h prior to IRI; for BUN (serum blood urea nitrogen) / serum creatinine: 24 h after IRI; for BUN (serum blood urea nitrogen) / serum creatinine / tubular / renal injury score / apoptotic cells in kidney (TUNEL) / neutrophil infiltration in kidney / CXCL2 gene expression level in kidney / Nor-1 and Nurr-1 levels in kidney / Nur77 gene expression level in kidney: vs vehicle; for BUN (serum blood urea nitrogen): P<0.0001; for serum creatinine: P<0.002; for apoptotic cells in kidney (TUNEL) / neutrophil infiltration in kidney: P<0.001; for CXCL2 gene expression level in kidney: P<0.02; for Nor-1 and Nurr-1 levels in kidney / Nur77 gene expression level in kidney: 10 mg/kg body weight 4 h prior to IRI, 24 hours after injury, qPCR; for localization pattern of Nur77: 24 h post IRI, immunochemistry", "description": "Male mice of age 8-10 weeks were used in this study. Animals were anesthetized using xylazine and ketamine and kept on 37° C. warming pads. The kidneys were exposed by flank incision and both kidney pedicles were clamped for 45 minutes using non-traumatic microaneurysm clamps (Roboz, Rockville, Md.). Reperfusion was confirmed visually and the incision was sutured. Body temperature of the animals was maintained at 37° C. throughout the procedure.\n9-cis retinoic acid in DMSO was administered to animals at a dose of 10 mg/kg body weight, 4 h prior to the IRI procedure. The final concentration of DMSO was 25% (v/v). Control animals received 25% (v/v) DMSO.\nKidneys from animals subjected to IRI were harvested. Transverse sections of the kidneys were either snap frozen in OCT or fixed in 10% formalin and processed for paraffin embedded sections. Renal morphology was assessed by PAS staining (Periodic acid-Schiff reagent). Neutrophil infiltration was assessed by staining formalin fixed paraffin embedded (FFPE) sections with anti-Ly6G (BD). Infiltrating neutrophils were counted in 3 independent HPFs (400×) per section per animal and represented as mean±SEM. Nur77 staining was carried out on FFPE sections after antigen retrievel using anti-mouse Nur77 antibody (Ebioscience). Endogenous mouse Ig was blocked using M.O.M kit from vector labs.\nKidney cell apoptosis was assessed by TUNEL staining using ApopTag® Peroxidase In Situ Apoptosis Detection Kit (Millipore). The apoptotic index was calculated as percentage of dead cells in 3 independent 400×HPF per section per animal by, counting both stained nuclei and total nuclei.\nSerum plasma was collected 24 h after ischemia reperfusion and stored at −80 deg C. until further processing. Serum creatinine was quantified using QuantiChrom™ Creatinine Assay Kit (Bioassays systems). Serum blood urea nitrogen levels were measured using Infinity Urea liquid stable reagent (Thermo fisher).\nas §1"}, "[2]": {"conditions": "Nur77+/+ (wild type) RPTECs, listed as 9-cis-RA"}}}
{"smiles": "CC1=C(/C=C/C(C)=C\\C=C\\C(C)=C\\C(=O)O)C(C)(C)CCC1", "note": "[9-cis-retinoic acid]", "values": [{"measurement": "CCL20 levels", "setting": "[1]; Nur77+/+ (wild type) RPTECs", "result": "very substantially reduced"}, {"measurement": "Induction of CXCL2", "setting": "[1]; Nur77+/+ (wild type) RPTECs", "result": "significantly attenuated"}, {"measurement": "CCL20 levels", "setting": "[1]; [2]", "result": "reduced"}, {"measurement": "Induction of CXCL2", "setting": "[1]; [2]", "result": "reduced"}, {"measurement": "CCL20 induction", "setting": "[1]", "result": "no further effect"}, {"measurement": "CCL20 induction", "setting": "[1]; listed as 9-cis-RA", "result": "did not substantially reduce the expression level further"}, {"measurement": "Induction of CXCL2", "setting": "[1]; RPTECs from Nur77 knockout kidneys", "result": "no further inhibitory effect"}, {"measurement": "Induction of CXCL2", "setting": "[1]; RPTECs from Nur77 knockout kidneys, listed as 9-cis-RA", "result": "did not substantially reduce the expression level further"}, {"measurement": "Nur77 levels (induction after ischemia-reperfusion)", "setting": "[1]", "result": "reduced by about half"}, {"measurement": "Nur77 levels (induction after ischemia-reperfusion)", "setting": "[1]; listed as 9-cis-RA", "result": "attenuated the induction"}, {"measurement": "Induction of Nr4a family members (Nor-1, Nurr1)", "setting": "[1]", "result": "inhibited"}, {"measurement": "Induction of Nr4a family members (Nor-1, Nurr1)", "setting": "[1]; listed as 9-cis-RA", "result": "attenuated the induction"}, {"measurement": "BUN (serum blood urea nitrogen)", "setting": "renal IRI", "result": "reduced"}, {"measurement": "BUN (serum blood urea nitrogen)", "setting": "renal IRI; listed as 9-cis-RA", "result": "significantly lower"}, {"measurement": "serum creatinine", "setting": "renal IRI", "result": "reduced"}, {"measurement": "serum creatinine", "setting": "renal IRI; listed as 9-cis-RA", "result": "significantly lower"}, {"measurement": "tubular / renal injury score", "setting": "renal IRI", "result": "improved"}, {"measurement": "apoptotic cells in kidney (TUNEL)", "setting": "renal IRI", "result": "significantly less"}, {"measurement": "neutrophil infiltration in kidney", "setting": "renal IRI", "result": "much less"}, {"measurement": "apoptotic cells in kidney (TUNEL)", "setting": "renal IRI; listed as 9-cis-RA", "result": "fewer apoptotic cells"}, {"measurement": "neutrophil infiltration in kidney", "setting": "renal IRI; listed as 9-cis-RA", "result": "fewer"}, {"measurement": "CXCL2 gene expression level in kidney", "setting": "renal IRI", "result": "Reduced"}, {"measurement": "CXCL2 gene expression level in kidney", "setting": "renal IRI; listed as 9-cis-RA", "result": "greatly diminished"}, {"measurement": "tubular / renal injury score", "setting": "renal IRI; listed as 9-cis-RA", "result": "less injured"}, {"measurement": "Nor-1 and Nurr-1 levels in kidney", "setting": "renal IRI", "result": "dramatically lower induction"}, {"measurement": "Nur77 gene expression level in kidney", "setting": "renal IRI", "result": "dramatically lower induction"}, {"measurement": "Nor-1 and Nurr-1 levels in kidney", "setting": "renal IRI; listed as 9-cis-RA", "result": "reduced"}, {"measurement": "Nur77 gene expression level in kidney", "setting": "renal IRI; listed as 9-cis-RA", "result": "significantly diminished"}, {"measurement": "localization pattern of Nur77", "setting": "renal IRI", "result": "cytoplasmic"}, {"measurement": "localization pattern of Nur77", "setting": "renal IRI; listed as 9 cis-RA", "result": "unaltered"}, {"measurement": "overall level of Nur77 protein expression in kidney (immunochemistry)", "setting": "renal IRI; mice that received 9-cis-retinoic acid, after renal IRI", "result": "dramatically reduced"}, {"measurement": "transcript level of HIF-1 alpha", "setting": "renal IRI; treatment prior to the induction of IRI", "result": "unchanged"}]}
